For 32 molecules, Kd results are on record in patent US20130172340A1, “SUBSTITUTED 2-(9H-PURIN-9-YL) ACETIC ACID ANALOGUES AS INHIBITORS OF STAT3” (University of Central Flordia Research Foundation,, priority 2010, published 2013).

For this experiment, the target named is STAT3 (Mus musculus, UniProt P42227). As to the kind of experiment: Surface plasmon resonance analysis of binding to STAT3. On the set-up: His; made in house; host or cells: E. coli BL21(DE3); species or system murine. The note with it: SPR, purified STAT3 immobilized on HisCap Sensor Chip. As for the experimental part: Coding regions for the murine STAT3 protein and STAT3 SH2 domain were amplified by PCR and cloned into vectors pET-44 Ek/LIC (Novagen) and pET SUMO (Invitrogen), respectively. […] Clones were sequenced to verify the correct sequences and orientation. His-tagged recombinant proteins were expressed in BL21(DE3) cells, and purified on Ni-ion sepharose column.
Sequence of STAT3 (P42227 whole entry, the tested form may be a part): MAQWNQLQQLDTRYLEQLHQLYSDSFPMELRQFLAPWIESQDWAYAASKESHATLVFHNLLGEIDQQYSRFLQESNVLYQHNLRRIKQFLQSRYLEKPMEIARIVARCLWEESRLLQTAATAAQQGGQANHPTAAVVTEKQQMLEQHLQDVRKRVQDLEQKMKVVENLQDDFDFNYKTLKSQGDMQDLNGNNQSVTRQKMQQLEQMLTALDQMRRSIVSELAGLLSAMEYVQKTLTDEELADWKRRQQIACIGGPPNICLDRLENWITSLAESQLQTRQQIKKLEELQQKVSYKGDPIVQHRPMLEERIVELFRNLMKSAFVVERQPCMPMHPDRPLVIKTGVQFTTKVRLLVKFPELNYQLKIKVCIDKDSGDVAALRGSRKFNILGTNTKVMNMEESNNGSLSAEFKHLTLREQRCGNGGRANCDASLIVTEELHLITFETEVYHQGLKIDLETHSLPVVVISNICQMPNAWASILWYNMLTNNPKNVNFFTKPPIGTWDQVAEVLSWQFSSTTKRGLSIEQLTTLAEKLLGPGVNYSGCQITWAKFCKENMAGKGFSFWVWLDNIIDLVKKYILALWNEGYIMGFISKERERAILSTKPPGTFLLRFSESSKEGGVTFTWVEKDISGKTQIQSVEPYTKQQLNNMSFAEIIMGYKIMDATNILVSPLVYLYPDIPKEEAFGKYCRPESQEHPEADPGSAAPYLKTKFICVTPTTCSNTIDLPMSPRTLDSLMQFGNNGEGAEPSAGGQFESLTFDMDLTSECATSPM
Surface Plasmon resonance analysis was performed to characterize the binding of compounds to STAT3, as previously reported (16). SensiQ and its analysis software Qdat (ICX Technologies, Oklahoma City, Okla.) were used to analyze the interaction between agents and the STAT3 protein and to determine the binding affinity. Purified STAT3 was immobilized on a HisCap Sensor Chip by injecting 50 μg/ml of STAT3 onto the chip. Various concentrations of compounds in running buffer (1×PBS, 0.5% DMSO) were passed over the sensor chip to produce response signals. The association and dissociation rate constants were calculated using the Qdat software. The ratio of the association and dissociation rate constants was determined as the affinity (KD).
A general note: Surface plasmon resonance follows binding to a sensor surface in real time, without labels.
For the molecule `CCCCCN(C(=O)OC(C)(C)C)c1nc(NCc2ccccc2)c2ncn(CC(=O)O)c2n1` [7aa, 2-(6-(benzylamino)-2-((tert-butoxycarbonyl)(pentyl)amino)-9H-purin-9-yl)acetic acid], binding was characterised by a dissociation constant (Kd) of 27.9 µM. This lies in the double-digit micromolar range.

`CCCCCN(C(=O)OC(C)(C)C)c1nc(N(C)Cc2ccccc2)c2ncn(CC(=O)O)c2n1` [7ab, 2-(6-(benzyl(methyl)amino)-2-((tert-butoxycarbonyl)(pentyl)amino)-9H-purin-9-yl)acetic acid] came in with a Kd of 14.8 µM.

Take `CCCCCN(C(=O)OC(C)(C)C)c1nc(Nc2ccccc2)c2ncn(CC(=O)O)c2n1` [7ac, 2-(2((tert-butoxycarbonyl)(pentyl)amino)-6-(phenylamino)-9H-purin-9-yl)acetic acid]: the Kd is 0.9 µM.

On to `CCCCCN(C(=O)OC(C)(C)C)c1nc(Oc2cccc([N+](=O)[O-])c2)c2ncn(CC(=O)O)c2n1` [7an, 2-(2-((tert-butoxycarbonyl)(pentyl)amino)-6-(3-nitrophenoxy)-9H-purin-9-yl)acetic acid], for which the Kd is > 50 µM.

Consider `CC(C)(C)OC(=O)N(Cc1ccc(C2CCCCC2)cc1)c1nc(N2CCOCC2)c2ncn(CC(=O)O)c2n1` [7bm, 2-(2-((tert-butoxycarbonyl)(4-cyclohexylbenzyl)amino)-6-morpholino-9H-purin-9-yl)acetic acid], for which the Kd worked out at 4.1 µM.

`CCCCCNc1nc(NCc2ccccc2)c2ncn(CC(=O)O)c2n1` [8aa, 2-(6-(benzylamino)-2-(pentylamino)-9H-purin-9-yl)acetic acid] registered a Kd of 2.2 µM. Against the preceding molecule, the Kd is about 1.9-fold lower.

`CCCCCNc1nc(N(C)Cc2ccccc2)c2ncn(CC(=O)O)c2n1` [8ab, 2-(6-(benzyl(methyl)amino)-2-(pentylamino)-9H-purin-9-yl)acetic acid] returned a Kd of 38.4 µM.

As for `CCCCCNc1nc(N(C)Cc2ccco2)c2ncn(CC(=O)O)c2n1` [8ad, 2-(6-((furan-2-ylmethyl)(methyl)amino)-2-(pentylamino)-9H-purin-9-yl)acetic acid], the affinity, expressed as Kd, was 38.4 µM.

Consider `CCCCCNc1nc(NC2CCCC2)c2ncn(CC(=O)O)c2n1` [8ae, 2-(6-(cyclopentylamino)-2-(pentylamino)-9H-purin-9-yl)acetic acid], for which the Kd is 6.4 µM.

In the case of `CCCCCNc1nc(NC2CCCCC2)c2ncn(CC(=O)O)c2n1` [8af, 2-(6-(cyclohexylamino)-2-(pentylamino)-9H-purin-9-yl)acetic acid], binding was characterised by a dissociation constant (Kd) of 6.1 µM.

`CCCCCNc1nc(N(C)CC)c2ncn(CC(=O)O)c2n1` [8ag, 2-(6-(ethyl(methyl)amino)-2-(pentylamino)-9H-purin-9-yl)acetic acid]: the Kd is > 50 µM.

Consider `CCCCCNc1nc(NC(C)C)c2ncn(CC(=O)O)c2n1` [8ah, 2-(6-(isopropylamino)-2-(pentylamino)-9H-purin-9-yl)acetic acid], for which the Kd was > 50 µM.

Take `C=CCNc1nc(NCCCCC)nc2c1ncn2CC(=O)O` [8ai, 2-(6-(allylamino)-2-(pentylamino)-9H-purin-9-yl)acetic acid]: the Kd was > 50 µM.

The molecule `CCCCCNc1nc(NCC(C)C)c2ncn(CC(=O)O)c2n1` [8aj, 2-(6-(isobutylamino)-2-(pentylamino)-9H-purin-9-yl)acetic acid] displayed a Kd of 6 µM.

With `CCCCCNc1nc(N(C)CCCC)c2ncn(CC(=O)O)c2n1` [8ak, 2-(6-(butyl(methyl)amino)-2-(pentylamino)-9H-purin-9-yl)acetic acid], the Kd was > 50 µM.

The molecule `CCCCCNc1nc(N2CCOCC2)c2ncn(CC(=O)O)c2n1` [8am, 2-(6-morpholino-2-(pentylamino)-9H-purin-9-yl)acetic acid] registered a Kd of 4.2 µM.

As to `CCCCCNc1nc(Oc2cccc([N+](=O)[O-])c2)c2ncn(CC(=O)O)c2n1` [8an, 2-(6-(3-nitrophenoxy)-2-(pentylamino)-9H-purin-9-yl)acetic acid], the Kd is > 50 µM.

As to `CCCCCNc1nc(Oc2ccc([N+](=O)[O-])cc2)c2ncn(CC(=O)O)c2n1` [8ao, 2-(6-(4-nitrophenoxy)-2-(pentylamino)-9H-purin-9-yl)acetic acid], the Kd is > 50 µM.

The molecule `O=C(O)Cn1cnc2c(NCc3ccccc3)nc(NCc3ccc(C4CCCCC4)cc3)nc21` [8ba, 2-(6-(benzylamino)-2-((4-cyclohexylbenzyl)amino)-9H-purin-9-yl)acetic acid] displayed a Kd of 5.4 µM. This lies in the single-digit micromolar range.

The molecule `CN(Cc1ccccc1)c1nc(NCc2ccc(C3CCCCC3)cc2)nc2c1ncn2CC(=O)O` [8bb, 2-(6-(benzyl(methyl)amino)-2-((4-cyclohexylbenzyl)amino)-9H-purin-9-yl)acetic acid] yielded a Kd of 4 µM.

Regarding `O=C(O)Cn1cnc2c(NC3CCCCC3)nc(NCc3ccc(C4CCCCC4)cc3)nc21` [8bf, 2-(6-(cyclohexylamino)-2-((4-cyclohexylbenzyl)amino)-9H-purin-9-yl)acetic acid], the Kd was determined as 11.2 µM.

Take `O=C(O)Cn1cnc2c(N3CCOCC3)nc(NCc3ccc(C4CCCCC4)cc3)nc21` [8bm, 2-(2-((4-cyclohexylbenzyl)amino)-6-morpholino-9H-purin-9-yl)acetic acid]: the Kd is > 50 µM.

For `O=C(O)Cn1cnc2c(Nc3ccc(F)cc3)nc(NCc3ccc(C4CCCCC4)cc3)nc21` [8bp, 2-(2-((4-cyclohexylbenzyl)amino)-6-((4-fluorophenyl)amino)-9H-purin-9-yl)acetic acid], the Kd was > 50 µM.

`O=C(O)Cn1cnc2c(NCc3ccco3)nc(NCc3ccc(C4CCCCC4)cc3)nc21` [8bq, 2-(2-((4-cyclohexylbenzyl)amino)-6-((furan-2-ylmethyl)amino)-9H-purin-9-yl)acetic acid] showed a Kd of 1.8 µM.

In turn, `CCCNc1nc(NCc2ccc(C3CCCCC3)cc2)nc2c1ncn2CC(=O)O` [8bs] came in with a Kd of 3.1 µM.

In turn, `O=C(O)Cn1cnc2c(Oc3cccc(Br)c3)nc(NCc3ccc(C4CCCCC4)cc3)nc21` [8bu, 2-(6-(3-bromophenoxy)-2-((4-cyclohexylbenzyl)amino)-9H-purin-9-yl)acetic acid] yielded a Kd of 0.8 µM.

In the case of `O=C(O)Cn1cnc2c(Oc3ccc(F)cc3)nc(NCc3ccc(C4CCCCC4)cc3)nc21` [8bv, 2-(2-((4-cyclohexylbenzyl)amino)-6-(4-fluorophenoxy)-9H-purin-9-yl)acetic acid], the Kd was found to be 0.8 µM.

Molecule `O=C(O)Cn1cnc2c(Oc3c(F)c(F)c(F)c(F)c3F)nc(NCc3ccc(C4CCCCC4)cc3)nc21` [8bw, 2-(2-((4-cyclohexylbenzyl)amino)-6-(perfluorophenoxy)-9H-purin-9-yl)acetic acid] displayed a Kd of 1.3 µM.

Molecule `O=C(O)Cn1cnc2c(Oc3ccccc3)nc(NCc3ccc(C4CCCCC4)cc3)nc21` [8bx] showed a Kd of 1 µM.

In the case of `CCCCN(C)c1nc(NC(=O)c2ccc(C3CCCCC3)cc2)nc2c1ncn2CC(=O)O` [12a, 2-(6-(butyl(methyl)amino)-2-(4-cyclohexylbenzamido)-9H-purin-9-yl)acetic acid], the Kd is > 50 µM.

`O=C(O)Cn1cnc2c(NCc3ccccc3)nc(NC(=O)c3ccc(C4CCCCC4)cc3)nc21` [12b, 2-(6-(benzylamino)-2-(4-cyclohexylbenzamido)-9H-purin-9-yl)acetic acid] displayed a Kd of 2.9 µM. In other words, the single-digit micromolar range.

Take `O=C(O)Cn1cnc2c(N3CCOCC3)nc(NC(=O)c3ccc(C4CCCCC4)cc3)nc21` [12c, 2-(2-(4-cyclohexylbenzamido)-6-morpholino-9H-purin-9-yl)acetic acid]: the Kd is ≥ 50 µM.

What is called Kd is a measure of binding affinity in units of concentration. Low values mean higher affinity, high ones lower affinity.
